Measured values from US6967196B1, “Sulfonamide compounds and uses thereof” (Bristol-Myers Squibb Company, priority 1999, dated 2005).
Counter-ions that a name gives are not always drawn. Like-named read-outs stand apart in the source and are kept apart here.

Test system: amyloid β production in transfected H4 (human neuroglioma) cells stably expressing APP constructs
Test: In vitro cell-based assay of inhibitors of amyloid β production (ELISA)
Outline: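 Aβ secreted into the medium was determined by a two-antibody ELISA specific for the Aβ C-terminus, calibrated with known Aβ amounts. Before that, compounds (10-100 μM initially) were left on the cells for roughly 16 hours.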

[1] = transfected H4 cells stably expressing APP constructs, approximately 16 hours incubation, amyloid β in medium by ELISA, read-out: ACTIVITY (IC50, inhibition of amyloid β production)
[2] = Homo sapiens, 16 h, transfected H4 cells expressing APP, approximately 16 hours incubation, amyloid β in medium by ELISA, read-out: ACTIVITY (IC50, inhibition of amyloid β production)
[3] = transfected H4 cells stably expressing APP, approx. 16 h incubation, amyloid β in medium by ELISA, read-out: ACTIVITY (IC50, inhibition of amyloid β production)
[4] = Homo sapiens, 16 h, transfected H4 cells stably expressing APP, approximately 16 hours incubation, amyloid β in medium by ELISA, Table B, read-out: ACTIVITY (IC50, inhibition of amyloid β production)
[5] = Table B, transfected H4 cells stably expressing APP, approximately 16 hours incubation, amyloid β in medium by ELISA, read-out: ACTIVITY (inhibitory concentration IC50, inhibition of amyloid β production)

Q: CCSCC[C@@H](C)N(c1cc(Cl)ccc1Cl)S(=O)(=O)c1ccc(Cl)cc1 [Example 1189, 4-chloro-N-[2,5-dichlorophenyl]-N-[1(R)-methyl-(3-ethylthio)propyl]benzenesulfonamide] was tested. Which IC50 [1] did it give?
A: 100 to 500 nM

Q: CC(CCOC(=O)NCCCn1ccnc1)N(c1cc(Cl)ccc1CO)S(=O)(=O)c1ccc(Cl)cc1 (stereo not shown) [Example 1289] was tested. Which IC50 [2] did it give?
A: ≤ 25 nM

Q: Which IC50 [3] does the source give for “2-[2-((1R)-1-{[(4-chlorophenyl)sulfonyl]-2,5-difluoroanilino}ethyl)phenyl]ethyl 3,4-difluorobenzylcarbamate [Example 726]” here?
A: 100 to 500 nM

Q: With “N-{3-[2-({[(4-chlorophenyl)sulfonyl]-2,5-difluoroanilino}methyl)phenoxy]propyl}-2-iodo-N-methylbenzamide [Example 716]” as the compound, how does the IC50 [3] read?
A: 100 to 500 nM

Q: O=S1(=O)CCN(CCCOc2ccccc2CN(c2ccccc2)S(=O)(=O)c2ccc(Cl)cc2)CC1 [Example 492, 4-chloro-N-{2-[3-(1,1-dioxido-4-thiomorpholinyl)propoxy]benzyl}-N-phenylbenzenesulfonamide hydrochloride] was tested. Which IC50 [4] did it give?
A: 100 to 500 nM

Q: With C[C@H](COC(=O)NC1CCCCC1)N(c1cc(Cl)ccc1CO)S(=O)(=O)c1ccc(Cl)cc1 [Example 1284] as the compound, how does the IC50 [2] read?
A: ≤ 25 nM

Q: For CC(c1ccccc1OCCCN1CCCCC1)N(c1cc(F)ccc1F)S(=O)(=O)c1ccc(Cl)cc1 (stereo not shown) [Example 236, 4-Chloro-N-(2,5-difluorophenyl)-N-(1-{2-[3-(1-piperidinyl)propoxy]phenyl}ethyl)benzenesulfonamide Hydrochloride], which IC50 (read-out: ACTIVITY (inhibitory concentration IC50, inhibition of amyloid β production)) is on record?
A: 25 to 50 nM

Q: With C[C@H](CCC[S+](C)[O-])N(c1cc(F)ccc1F)S(=O)(=O)c1ccc(Cl)cc1 (stereo partly drawn) [Example 1175, 4-chloro-N-[2,5-difluorophenyl]-N-[1(R)-methyl-(4-methylsulfinyl)butyl]benzenesulfonamide] as the compound, how does the IC50 [1] read?
A: ≤ 25 nM

Q: Which IC50 [5] does the source give for COC(=O)C[S+]([O-])C[C@@H](C)N(c1cc(Cl)ccc1Cl)S(=O)(=O)c1ccc(Cl)cc1 (stereo partly drawn) [Example 178, Methyl(5R)-5-[(2,5-dichlorophenyl)[(4-chlorophenyl)sulfonyl]amino]-3-thiohexanoate,3 Oxide] here?
A: ≤ 25 nM

Q: For CC(c1ccccc1OCCCNC(=O)c1c(F)cccc1F)N(c1cc(F)ccc1F)S(=O)(=O)c1ccc(Cl)cc1 (stereo not shown) [Example 408, N-{3-[2-(1-{[(4-chlorophenyl)sulfonyl]-2,5-difluoroanilino}ethyl)phenoxy]propyl}-2,6-difluorobenzamide], which IC50 [4] is on record?
A: 50 to 100 nM

Q: Which IC50 (Homo sapiens, 16 h, transfected H4 cells stably expressing APP, approx. 16 h incubation, amyloid β in medium by ELISA, read-out: ACTIVITY (IC50, inhibition of amyloid β production)) does the source give for CC(c1ccccc1OCCCN(C)S(=O)(=O)c1ccc(I)cc1)N(c1cc(F)ccc1F)S(=O)(=O)c1ccc(Cl)cc1 (stereo not shown) [Example 692, 4-chloro-N-(2,5-difluorophenyl)-N-[1-(2-{3-[[(4-iodophenyl)sulfonyl](methyl)amino]propoxy}phenyl)ethyl]benzenesulfonamide] here?
A: 100 to 500 nM

Q: For O=S(=O)(c1ccc(Cl)cc1)N(Cc1ccccc1OCCCN1CCC(Cc2ccccc2)CC1)c1ccccc1 [Example 880, N-{2-[3-(4-benzyl-1-piperidinyl)propoxy]benzyl}-4-chloro-N-phenylbenzenesulfonamide hydrochloride], which IC50 (Homo sapiens, 16 h, transfected H4 cells stably expressing APP, approximately 16 hours incubation, amyloid β in medium by ELISA, read-out: ACTIVITY (IC50, inhibition of amyloid β production)) is on record?
A: > 500 nM

Q: How did the IC50 [3] turn out when “3-chloro-N-{3-[2-(1-{[(4-chlorophenyl)sulfonyl]-2,5-difluoroanilino}ethyl)phenoxy]propyl}-N-methylbenzenesulfonamide [Example 684]” was run?
A: 100 to 500 nM

Q: Which IC50 [5] does the source give for C[C@H](CCCS(=O)(=O)Cl)N(c1cc(Cl)ccc1F)S(=O)(=O)c1ccc(Cl)cc1 [Example 43, (4R)-4-[N-[5-chloro-2-fluorophenyl][(4-chlorophenyl)sulfonyl]amino]pentylsulfonyl Chloride] here?
A: ≤ 25 nM

Q: How did the IC50 [3] turn out when “N-{3-[2-(1-{[(4-chlorophenyl)sulfonyl]-2,5-difluoroanilino}ethyl)phenoxy]butyl}-3-cyclopentyl-N-methylpropanamide [Example 712]” was run?
A: 100 to 500 nM

Q: How did the IC50 [3] turn out when “N-{4-[2-(1-{[(4-chlorophenyl)sulfonyl]-2,5-difluoroanilino}ethyl)phenoxy]butyl}-2-ethyl-N-methylhexanamide [Example 676]” was run?
A: 100 to 500 nM
